System: 565726-208-R1-J5-PDC complex spheroids, growth inhibition
Assay: Anticancer human tumor 565726-208-R1-J5-PDC patient-derived pancreatic adenocarcinoma cell line growth inhibition [RAS]
Conditions: for viability, T/C: stronger effect = lower value
In short: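 Multi-cell-type spheroids: tumor cells plus HUVEC endothelial cells and mesenchymal stem cells. RAS-pathway inhibitors were combined with targeted agents, each dosed in half-log steps down from clinical Cmax, or from 10 microM when Cmax was unknown.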

[1] = curve of first compound, second compound 0.000949 µM
[2] = curve of first compound, second compound 0.003 µM
[3] = curve of first compound, second compound 0.00949 µM
[4] = curve of first compound, second compound 0.03 µM
[5] = curve of first compound, second compound 0.0949 µM
[6] = curve of first compound, second compound 0.3 µM
[7] = second compound 0.000949 µM, first compound 0.0316 µM
[8] = second compound 0.000949 µM, first compound 0.1 µM
[9] = second compound 0.000949 µM, first compound 0.316 µM
[10] = second compound 0.000949 µM, first compound 1 µM
[11] = second compound 0.000949 µM, first compound 3.16 µM
[12] = second compound 0.000949 µM, first compound 10 µM
[13] = second compound 0.003 µM, first compound 0.0316 µM
[14] = second compound 0.003 µM, first compound 0.1 µM
[15] = second compound 0.003 µM, first compound 0.316 µM
[16] = second compound 0.003 µM, first compound 1 µM
[17] = second compound 0.003 µM, first compound 3.16 µM
[18] = second compound 0.003 µM, first compound 10 µM
[19] = second compound 0.00949 µM, first compound 0.0316 µM
[20] = second compound 0.00949 µM, first compound 0.1 µM
[21] = second compound 0.00949 µM, first compound 0.316 µM
[22] = second compound 0.00949 µM, first compound 1 µM
[23] = second compound 0.00949 µM, first compound 3.16 µM
[24] = second compound 0.00949 µM, first compound 10 µM
[25] = second compound 0.03 µM, first compound 0.0316 µM
[26] = second compound 0.03 µM, first compound 0.1 µM
[27] = second compound 0.03 µM, first compound 0.316 µM
[28] = second compound 0.03 µM, first compound 1 µM
[29] = second compound 0.03 µM, first compound 3.16 µM
[30] = second compound 0.03 µM, first compound 10 µM
[31] = second compound 0.0949 µM, first compound 0.0316 µM
[32] = second compound 0.0949 µM, first compound 0.1 µM
[33] = second compound 0.0949 µM, first compound 0.316 µM
[34] = second compound 0.0949 µM, first compound 1 µM
[35] = second compound 0.0949 µM, first compound 3.16 µM
[36] = second compound 0.0949 µM, first compound 10 µM
[37] = second compound 0.3 µM, first compound 0.0316 µM
[38] = second compound 0.3 µM, first compound 0.1 µM
[39] = second compound 0.3 µM, first compound 0.316 µM
[40] = second compound 0.3 µM, first compound 1 µM
[41] = second compound 0.3 µM, first compound 3.16 µM
[42] = second compound 0.3 µM, first compound 10 µM
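Note: spheroids exposed to compounds for seven days before readout.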
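Throughout, for viability, T/C: 100% = DMSO vehicle control viability.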

In the case of CC(=O)OC12COC1CC(O)C1(C)C(=O)C(O)C3=C(C)C(OC(=O)C(O)C(NC(=O)OC(C)(C)C)c4ccccc4)CC(O)(C(OC(=O)c4ccccc4)C21)C3(C)C (stereo not given) + C#Cc1c(F)ccc2cc(O)cc(-c3ncc4c(N5CC6CCC(C5)N6)nc(OCC56CCCN5CC(F)C6)nc4c3F)c12, the IC50 (curve of first compound, second compound 0.0316 µM) is reported as less than 31.6 nM, the IC50 (curve of first compound, second compound 0.1 µM) is reported as less than 31.6 nM and the IC50 (curve of first compound, second compound 0.316 µM) is reported as less than 31.6 nM. The IC50 (curve of first compound, second compound 1 µM) was less than 31.6 nM, the IC50 (curve of first compound, second compound 3.16 µM) was less than 31.6 nM and the IC50 (curve of first compound, second compound 10 µM) was less than 31.6 nM. For the same compound, the viability, T/C (second compound 0.0316 µM, first compound 0.0316 µM) was 18.9%, the viability, T/C (second compound 0.0316 µM, first compound 0.1 µM) was 20.3% and the viability, T/C (second compound 0.0316 µM, first compound 0.316 µM) was 14.2%. For the same compound, the viability, T/C (second compound 0.0316 µM, first compound 1 µM) was 19.1%, the viability, T/C (second compound 0.0316 µM, first compound 3.16 µM) was 21.4% and the viability, T/C (second compound 0.0316 µM, first compound 10 µM) was 27%. For the same compound, the viability, T/C (second compound 0.1 µM, first compound 0.0316 µM) was 16.9%, the viability, T/C (second compound 0.1 µM, first compound 0.1 µM) was 20.3% and the viability, T/C (second compound 0.1 µM, first compound 0.316 µM) was 19.1%. For the same compound, the viability, T/C (second compound 0.1 µM, first compound 1 µM) was 15.5%, the viability, T/C (second compound 0.1 µM, first compound 3.16 µM) was 18.8% and the viability, T/C (second compound 0.1 µM, first compound 10 µM) was 29.8%. The viability, T/C (second compound 0.316 µM, first compound 0.0316 µM) was 18.8%, the viability, T/C (second compound 0.316 µM, first compound 0.1 µM) was 21.2% and the viability, T/C (second compound 0.316 µM, first compound 0.316 µM) was 16.1%. For the same compound, the viability, T/C (second compound 0.316 µM, first compound 1 µM) was 18.1%, the viability, T/C (second compound 0.316 µM, first compound 3.16 µM) was 22.8% and the viability, T/C (second compound 0.316 µM, first compound 10 µM) was 30.4%. The viability, T/C (second compound 1 µM, first compound 0.0316 µM) was 20%, the viability, T/C (second compound 1 µM, first compound 0.1 µM) was 21.3% and the viability, T/C (second compound 1 µM, first compound 0.316 µM) was 14.5%. The viability, T/C (second compound 1 µM, first compound 1 µM) was 17.3%, the viability, T/C (second compound 1 µM, first compound 3.16 µM) was 24.9% and the viability, T/C (second compound 1 µM, first compound 10 µM) was 26.6%. It also gave a viability, T/C (second compound 3.16 µM, first compound 0.0316 µM) of 19.3%, a viability, T/C (second compound 3.16 µM, first compound 0.1 µM) of 24.1% and a viability, T/C (second compound 3.16 µM, first compound 0.316 µM) of 23.5%. For the same compound, the viability, T/C (second compound 3.16 µM, first compound 1 µM) was 19.9%, the viability, T/C (second compound 3.16 µM, first compound 3.16 µM) was 25.9% and the viability, T/C (second compound 3.16 µM, first compound 10 µM) was 26.7%. For the same compound, the viability, T/C (second compound 10 µM, first compound 0.0316 µM) was 17.7%, the viability, T/C (second compound 10 µM, first compound 0.1 µM) was 23.9% and the viability, T/C (second compound 10 µM, first compound 0.316 µM) was 22.1%. For the same compound, the viability, T/C (second compound 10 µM, first compound 1 µM) was 23.1%, the viability, T/C (second compound 10 µM, first compound 3.16 µM) was 21% and the viability, T/C (second compound 10 µM, first compound 10 µM) was 22.4%.

With CCN1CCN(Cc2ccc(Nc3ncc(F)c(-c4cc(F)c5nc(C)n(C(C)C)c5c4)n3)nc2)CC1 the viability, T/C (compound 0.00316 µM) was 96.8% [middle of 4 runs], the viability, T/C (compound 0.0316 µM) was 81.5% [middle of 4 runs] and the viability, T/C (compound 0.1 µM) was 77.8% [middle of 4 runs]. The IC50 (curve of compound) was greater than 1000 nM.

With NC1c2ccccc2OC12CCN(c1cnc3c(N4CCCc5ncccc54)n[nH]c3n1)CC2 (stereo not given) + CCn1c(-c2cc(N3CCN(C)CC3)cnc2C(C)OC)c2c3cc(ccc31)-c1csc(n1)CC(NC(=O)C1CC1C)C(=O)N1CCCC(N1)C(=O)OCC(C)(C)C2 the IC50 [1] was 45 nM, the IC50 [2] was less than 31.6 nM and the IC50 [3] was less than 31.6 nM. It also gave an IC50 [4] of less than 31.6 nM, an IC50 [5] of less than 31.6 nM and an IC50 [6] of less than 31.6 nM. For the same compound, the viability, T/C [7] was 53.3%, the viability, T/C [8] was 42.6% and the viability, T/C [9] was 24.9%. It also gave a viability, T/C [10] of 23.5%, a viability, T/C [11] of 17.5% and a viability, T/C [12] of 21.3%. For the same compound, the viability, T/C [13] was 36.7%, the viability, T/C [14] was 27.4% and the viability, T/C [15] was 19.8%. For the same compound, the viability, T/C [16] was 14.2%, the viability, T/C [17] was 16.9% and the viability, T/C [18] was 16.4%. It also gave a viability, T/C [19] of 28.7%, a viability, T/C [20] of 21% and a viability, T/C [21] of 16.8%. The viability, T/C [22] was 13.7%, the viability, T/C [23] was 14.5% and the viability, T/C [24] was 14%. It also gave a viability, T/C [25] of 21.4%, a viability, T/C [26] of 18% and a viability, T/C [27] of 13.5%. The viability, T/C [28] was 13%, the viability, T/C [29] was 12.9% and the viability, T/C [30] was 14.5%. The viability, T/C [31] was 19.4%, the viability, T/C [32] was 17% and the viability, T/C [33] was 15.5%. For the same compound, the viability, T/C [34] was 13.7%, the viability, T/C [35] was 11.8% and the viability, T/C [36] was 13.9%. It also gave a viability, T/C [37] of 17.5%, a viability, T/C [38] of 13.5% and a viability, T/C [39] of 13.6%. For the same compound, the viability, T/C [40] was 13.1%, the viability, T/C [41] was 12% and the viability, T/C [42] was 13.8%.

CC(C)NCC(C(=O)N1CCN(c2ncnc3c2C(C)CC3O)CC1)c1ccc(Cl)cc1 (stereo not given) + CCn1c(-c2cc(N3CCN(C)CC3)cnc2C(C)OC)c2c3cc(ccc31)-c1csc(n1)CC(NC(=O)C1CC1C)C(=O)N1CCCC(N1)C(=O)OCC(C)(C)C2 showed an IC50 [1] of 1520 nM, an IC50 [2] of 347 nM and an IC50 [3] of less than 31.6 nM. For the same compound, the IC50 [4] was less than 31.6 nM, the IC50 [5] was less than 31.6 nM and the IC50 [6] was less than 31.6 nM. The viability, T/C [7] was 66.7%, the viability, T/C [8] was 64.6% and the viability, T/C [9] was 62.8%. The viability, T/C [10] was 51.7%, the viability, T/C [11] was 43.9% and the viability, T/C [12] was 28.7%. It also gave a viability, T/C [13] of 59.2%, a viability, T/C [14] of 58.8% and a viability, T/C [15] of 48.7%. For the same compound, the viability, T/C [16] was 41.2%, the viability, T/C [17] was 38.3% and the viability, T/C [18] was 21.4%. It also gave a viability, T/C [19] of 42.5%, a viability, T/C [20] of 41.8% and a viability, T/C [21] of 38.5%. The viability, T/C [22] was 34.5%, the viability, T/C [23] was 33.1% and the viability, T/C [24] was 18.3%. For the same compound, the viability, T/C [25] was 32%, the viability, T/C [26] was 34.1% and the viability, T/C [27] was 30.6%. For the same compound, the viability, T/C [28] was 28.5%, the viability, T/C [29] was 24.7% and the viability, T/C [30] was 14.7%. The viability, T/C [31] was 27%, the viability, T/C [32] was 25.5% and the viability, T/C [33] was 26.7%. The viability, T/C [34] was 21%, the viability, T/C [35] was 17.9% and the viability, T/C [36] was 12.5%. It also gave a viability, T/C [37] of 25.5%, a viability, T/C [38] of 22.5% and a viability, T/C [39] of 22.1%. It also gave a viability, T/C [40] of 18.8%, a viability, T/C [41] of 19.7% and a viability, T/C [42] of 12%.

From PubChem BioAssay AID2060899 (Molecular Pharmacology Branch, DTP, NCI, 2025)
